What was measured:
[1] = target: PAF receptor (Human Platelet Membrane Receptors) (Homo sapiens, UniProt P25105)
Protocol: Inhibition of ^3 H-PAF Binding to Human Platelet Membrane Receptors
Receptor Preparation: Ten units of in-dated human packed platelets, each containing 45-65 ml platelet rich-plasma, were purchased from a commercial blood bank. Disposable plasticware was used throughout for receptor preparation. The units were pooled and a 1 ml aliquot was removed for determination of platelet concentration, using a Coulter Counter. […] Protein content was determined by a fluorescamine protein assay.
Assay Methods: Receptor Characterization--Each receptor preparation was evaluated to determine the number of receptor populations, the number of PAF receptor equivalents/mg protein and the dissociation constant (KD) for PAF binding. This required 2-3 experiments in which the protein concentration was held constant and the ^3 H-PAF ligand concentration was varied from approximately 0.10-2.5 nM and the data was analyzed by Scatchard methodology. […]
Assay Methods: Routine Assay of Compounds--The compounds were weighed precisely and solubilized in quantities of DMSO such that a 5 μl aliquot in the incubate would deliver the desired compound concentration. Compounds tested for the first time in this assay were evaluated at a concentration of 50 μM in the incubation medium. […]

[2] = test system: PAF-induced aggregation of washed rabbit platelets; experiment: PAF-induced platelet aggregation; format: cell-based; details: Oryctolagus cuniculus, antagonist 60 sec before PAF (0.2 nM to 0.2 μM), read 60 sec after PAF
Protocol: (§1) PAF-induced platelet aggregation and secretion: Washed, [^3 H]serotonin labeled rabbit platelets were prepared as previously described in COX, C. P , J. LINDEN and S. I. SAID: VIP elevates platelet cyclic AMP (cAMP) levels and inhibits in vitro platelet activation induced by platelet-activating factor (PAF). Peptides 5:25-28, 1984, and maintained in an atmosphere of 5% CO2 at 37° C. until used in the bioassay. Aliquots of platelets (2.5×10^8 /ml) were incubated with either an antagonist of PAF or the appropriate vehicle for 60 sec prior to the addition of PAF (0.2 nM to 0.2 μM). Aggregation was continuously monitored on a strip-chart recorder and recorded as the height of the tracing at 60 sec after the addition of PAF. Secretion of [^3 H] serotonin was measured in a sample of the platelet suspension removed at 60 sec after the addition of PAF. The percent inhibition of aggregation and secretion was calculated by comparing antagonist-treated platelets with the appropriate vehicle-treated control platelets. Each combination of antagonist and PAF was repeated using different platelet preparations. IC50 values were determined by inspection of the dose-response curves.

[3] = test system: PAF-induced secretion of [^3 H]serotonin-labeled rabbit platelets; experiment: PAF-induced platelet secretion ([^3 H]serotonin); format: cell-based; details: Oryctolagus cuniculus, washed rabbit platelets, antagonist 60 sec before PAF (0.2 nM to 0.2 μM), read 60 sec after PAF
Protocol: as §1

Chain of PAF receptor (Human Platelet Membrane Receptors) (P25105 whole entry): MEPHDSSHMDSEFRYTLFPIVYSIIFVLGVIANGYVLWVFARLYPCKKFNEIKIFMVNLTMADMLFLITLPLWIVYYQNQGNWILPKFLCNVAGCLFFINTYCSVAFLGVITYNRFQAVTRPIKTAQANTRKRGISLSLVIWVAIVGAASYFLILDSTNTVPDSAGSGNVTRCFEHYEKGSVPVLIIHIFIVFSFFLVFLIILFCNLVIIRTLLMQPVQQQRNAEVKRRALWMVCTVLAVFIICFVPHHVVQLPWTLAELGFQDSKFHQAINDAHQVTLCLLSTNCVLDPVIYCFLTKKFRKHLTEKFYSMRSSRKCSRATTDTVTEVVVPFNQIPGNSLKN

SMILES	IC50 [1] [µM]	IC50 [2] [µM]	IC50 [3] [µM]	inhibition at 50 µM ([1]; read-out: inhibited ^3 H-PAF binding (triazolam compound inhibition control)) [%]
O=C(c1ccc(Cn2ccc3ncnc-3c2)nc1)N(C1CCCC1)C1CCCC1 [Example 1, N,N-dicyclopentyl-6-(5H-imidazo[4,5-c]pyridin-5-yl-methyl)-3-pyridinecarboxamide]	0.88	–	–	–
CN(C(=O)c1ccc(Cn2ccc3ncnc-3c2)o1)C1CCCCC1 [Example 2, N-cyclohexyl-5-[(5H-imidazo[4,5-c]pyridin-5-yl)methyl]N-methyl-2-furancarboxamide]	–	~100	50	–
O=C(c1ccc(Cn2ccc3ncnc-3c2)o1)N(C1CCCCC1)C1CCCC1 [Example 3]	–	10 to 100	2.8	–
Cc1nnc2n1-c1ccc(Cl)cc1C(c1ccccc1Cl)=NC2 [Triazolam, triazolam, reference compound]	–	–	–	~50
